{"source": "patent US11103528B1", "about": "“Slow release calcium composition” (Government of the United States, as represented by the …, priority 2019, dated 2021)", "system": "retinal pigmented epithelium (RPE) wild-type (WT) cells", "test": "Effect of calcium and red-light irradiation on NO levels (DAF-FM DA integrated fluorescence)", "format": "cell-based", "protocol": "In this experiment, the influence of Ca^2+ on nitric oxide (NO) levels was determined by measuring the integrated fluorescence of the reaction product of NO with diaminofluorescein-FM diacetate (DAF-FM DA, C25H18F2N2O7).\nProcedurally, the experiment was carried out using a 96 well plate, with either ionic calcium (Ca^2+) or encapsulated calcium (CaCD) added to each of the wells. The concentration of calcium in the wells as CaCl2 was 1.67 mM, and the concentration as CaCD was 2.79 mM stock (or 5 μM final concentration), in a total volume of 300 μL in each well. The number of RPE-WT cells was approximately 175,000 per well. Two reference samples for CaCl2 and CaCD were used to compare relative changes upon exposure to red-light in the presence of Ca^2+. The RPE cells were incubated with DAF-FM DA for 30 minutes at 37 degrees C. and the fluorescence was immediately measured (as time-point 0 minutes) to obtain a ‘background’ baseline."}
{"smiles": "[Ca+2].[Cl-].[Cl-]", "note": "[Ca, CaCl2]", "values": [{"measurement": "Intensity (integrated fluorescence of DAF-FM DA, NO level)", "setting": "WT in PBS + Ca (no red light), Time 9.09 (minutes)", "result": 85.40}, {"measurement": "Intensity (integrated fluorescence of DAF-FM DA, NO level)", "setting": "WT in PBS + Ca (no red light), Time 28.63 (minutes)", "result": 92.76}, {"measurement": "Intensity (integrated fluorescence of DAF-FM DA, NO level)", "setting": "WT in PBS + Ca (no red light), Time 75.14 (minutes)", "result": 100.20}, {"measurement": "Intensity (integrated fluorescence of DAF-FM DA, NO level)", "setting": "WT in PBS + Ca (no red light), Time 307.24 (minutes)", "result": 191.01}, {"measurement": "Intensity (integrated fluorescence of DAF-FM DA, NO level)", "setting": "WT in PBS + Ca (no red light), Time 319.44 (minutes)", "result": 198.35}, {"measurement": "Intensity (integrated fluorescence of DAF-FM DA, NO level)", "setting": "WT in PBS + Ca (no red light), Time 431.58 (minutes)", "result": 271.80}, {"measurement": "Intensity (integrated fluorescence of DAF-FM DA, NO level)", "setting": "WT in PBS + Ca (no red light), Time 460.95 (minutes)", "result": 276.75}, {"measurement": "Intensity (integrated fluorescence of DAF-FM DA, NO level)", "setting": "WT in PBS + Ca (no red light), Time 770.49 (minutes)", "result": 489.70}, {"measurement": "Intensity (integrated fluorescence of DAF-FM DA, NO level)", "setting": "WT in PBS + Ca (no red light), Time 799.74 (minutes)", "result": 509.28}, {"measurement": "Intensity (integrated fluorescence of DAF-FM DA, NO level)", "setting": "WT in PBS + Ca + RL15, Time 9.09 (minutes)", "result": 85.40}, {"measurement": "Intensity (integrated fluorescence of DAF-FM DA, NO level)", "setting": "WT in PBS + Ca + RL15, Time 28.61 (minutes)", "result": 95.20}, {"measurement": "Intensity (integrated fluorescence of DAF-FM DA, NO level)", "setting": "WT in PBS + Ca + RL15, Time 70.2 (minutes)", "result": 105.06}, {"measurement": "Intensity (integrated fluorescence of DAF-FM DA, NO level)", "setting": "WT in PBS + Ca + RL15, Time 307.22 (minutes)", "result": 193.44}, {"measurement": "Intensity (integrated fluorescence of DAF-FM DA, NO level)", "setting": "WT in PBS + Ca + RL15, Time 316.95 (minutes)", "result": 203.22}, {"measurement": "Intensity (integrated fluorescence of DAF-FM DA, NO level)", "setting": "WT in PBS + Ca + RL15, Time 428.93 (minutes)", "result": 296.18}, {"measurement": "Intensity (integrated fluorescence of DAF-FM DA, NO level)", "setting": "WT in PBS + Ca + RL15, Time 460.74 (minutes)", "result": 303.57}, {"measurement": "Intensity (integrated fluorescence of DAF-FM DA, NO level)", "setting": "WT in PBS + Ca + RL15, Time 765.45 (minutes)", "result": 506.76}, {"measurement": "Intensity (integrated fluorescence of DAF-FM DA, NO level)", "setting": "WT in PBS + Ca + RL15, Time 799.54 (minutes)", "result": 533.67}, {"measurement": "Intensity (integrated fluorescence of DAF-FM DA, NO level)", "setting": "WT in PBS + Ca + RL30, Time 11.6 (minutes)", "result": 68.33}, {"measurement": "Intensity (integrated fluorescence of DAF-FM DA, NO level)", "setting": "WT in PBS + Ca + RL30, Time 33.6 (minutes)", "result": 75.70}, {"measurement": "Intensity (integrated fluorescence of DAF-FM DA, NO level)", "setting": "WT in PBS + Ca + RL30, Time 72.9 (minutes)", "result": 73.36}, {"measurement": "Intensity (integrated fluorescence of DAF-FM DA, NO level)", "setting": "WT in PBS + Ca + RL30, Time 308 (minutes)", "result": 83.69}, {"measurement": "Intensity (integrated fluorescence of DAF-FM DA, NO level)", "setting": "WT in PBS + Ca + RL30, Time 320.3 (minutes)", "result": 86.16}, {"measurement": "Intensity (integrated fluorescence of DAF-FM DA, NO level)", "setting": "WT in PBS + Ca + RL30, Time 427 (minutes)", "result": 237.64}, {"measurement": "Intensity (integrated fluorescence of DAF-FM DA, NO level)", "setting": "WT in PBS + Ca + RL30, Time 466 (minutes)", "result": 240.17}, {"measurement": "Intensity (integrated fluorescence of DAF-FM DA, NO level)", "setting": "WT in PBS + Ca + RL30, Time 770.9 (minutes)", "result": 462.87}, {"measurement": "Intensity (integrated fluorescence of DAF-FM DA, NO level)", "setting": "WT in PBS + Ca + RL30, Time 799.9 (minutes)", "result": 494.65}, {"measurement": "Intensity (integrated fluorescence of DAF-FM DA, NO level)", "setting": "WT in PBS + Ca + RL60, Time 11.52 (minutes)", "result": 87.84}, {"measurement": "Intensity (integrated fluorescence of DAF-FM DA, NO level)", "setting": "WT in PBS + Ca + RL60, Time 33.54 (minutes)", "result": 92.78}, {"measurement": "Intensity (integrated fluorescence of DAF-FM DA, NO level)", "setting": "WT in PBS + Ca + RL60, Time 72.65 (minutes)", "result": 105.07}, {"measurement": "Intensity (integrated fluorescence of DAF-FM DA, NO level)", "setting": "WT in PBS + Ca + RL60, Time 307.26 (minutes)", "result": 188.57}, {"measurement": "Intensity (integrated fluorescence of DAF-FM DA, NO level)", "setting": "WT in PBS + Ca + RL60, Time 319.42 (minutes)", "result": 200.79}, {"measurement": "Intensity (integrated fluorescence of DAF-FM DA, NO level)", "setting": "WT in PBS + Ca + RL60, Time 429.53 (minutes)", "result": 223.01}, {"measurement": "Intensity (integrated fluorescence of DAF-FM DA, NO level)", "setting": "WT in PBS + Ca + RL60, Time 463.82 (minutes)", "result": 225.53}, {"measurement": "Intensity (integrated fluorescence of DAF-FM DA, NO level)", "setting": "WT in PBS + Ca + RL60, Time 768.4 (minutes)", "result": 445.79}, {"measurement": "Intensity (integrated fluorescence of DAF-FM DA, NO level)", "setting": "WT in PBS + Ca + RL60, Time 799.9 (minutes)", "result": 480.01}, {"measurement": "DAF-FM DA NO profile", "setting": "ionic calcium wells, over the entire 800 minutes", "result": "continued to increase"}]}
